Values joined by “and” are separate entries in the source; they are usually repeats but may differ in a detail not shown here. Equal values may be shown once.
Experiments:
[1] = system: Escherichia coli K-12 MG1655; experiment: Screening for tolerance in wild-type cells: growth in varying concentrations of neutralized diacid, Biolector; type: cell-based; details: for tlag (lag time), mean / μ (growth rate), mean: neutralized with sodium hydroxide
Procedure: Escherichia coli K-12 MG1655 was grown overnight in M9 minimal medium+1% glucose and subcultured the following morning to an initial OD600 of 0.05 in M9+1% glucose. Cells were grown to mid-exponential phase (OD600 0.7-1.0) and were back-diluted with fresh medium to an OD600 of 0.7. The diluted cells were used to inoculate M9+1% glucose containing varying concentrations of glutaric acid or adipic acid which were neutralized to pH 7.0 with sodium hydroxide, and growth was measured in FlowerPlates in a Biolector microbioreactor system (m2p-labs) at 37° C. with 1000 rpm shaking. The culture volume in each well was 1.4 mL.

[2] = system: Escherichia coli K-12 MG1655 evolved isolates and knockout mutants; experiment: Biolector growth screening of evolved isolates and reconstructed (knockout) mutants in glutaric or adipic acid; type: cell-based
Procedure: Biological triplicate cultures of each strain were grown to saturation overnight in 96 well deepwell plates containing 300 μL M9+1% glucose. The next day, cells were diluted 1:10 in deionized water in a clear 96 well plate and the OD600 was measured on a BioTek plate reader. 48 well FlowerPlates containing a final volume of 1.4 mL of M9+1/o glucose (plus relevant chemical) were inoculated to OD600 0.03 (with plate reader pathlength, 200 μL volume) with the overnight culture and sealed with Breathseal film. Light backscatter intensity was monitored in a Biolector microbioreactor system at 37° C. with 1000 rpm shaking.
Each re-sequenced isolate was characterized using the Biolector system for growth at the screening concentration of chemical (47.5 g/L glutaric acid or 50 g/L adipic acid) in biological triplicates.

[3] = strain ADIP1-1, M9 + 50 g/L adipic acid (neutralized with sodium hydroxide)
[4] = strain ADIP1-9, M9 + 50 g/L adipic acid (neutralized with sodium hydroxide)
[5] = strain ADIP2-5, M9 + 50 g/L adipic acid (neutralized with sodium hydroxide)
[6] = strain ADIP2-6, M9 + 50 g/L adipic acid (neutralized with sodium hydroxide)
[7] = strain ADIP2-10, M9 + 50 g/L adipic acid (neutralized with sodium hydroxide)
[8] = strain ADIP3-2, M9 + 50 g/L adipic acid (neutralized with sodium hydroxide)
[9] = strain ADIP3-4, M9 + 50 g/L adipic acid (neutralized with sodium hydroxide)
[10] = strain ADIP3-8, M9 + 50 g/L adipic acid (neutralized with sodium hydroxide)
[11] = strain ADIP4-8, M9 + 50 g/L adipic acid (neutralized with sodium hydroxide)
[12] = strain ADIP5-2, M9 + 50 g/L adipic acid (neutralized with sodium hydroxide)
[13] = strain ADIP5-6, M9 + 50 g/L adipic acid (neutralized with sodium hydroxide)
[14] = strain ADIP6-3, M9 + 50 g/L adipic acid (neutralized with sodium hydroxide)
[15] = strain ADIP6-9, M9 + 50 g/L adipic acid (neutralized with sodium hydroxide)
[16] = strain ADIP6-10, M9 + 50 g/L adipic acid (neutralized with sodium hydroxide)
[17] = strain ADIP7-2, M9 + 50 g/L adipic acid (neutralized with sodium hydroxide)
[18] = strain ADIP7-5, M9 + 50 g/L adipic acid (neutralized with sodium hydroxide)
[19] = strain ADIP8-3, M9 + 50 g/L adipic acid (neutralized with sodium hydroxide)
[20] = strain ADIP8-7, M9 + 50 g/L adipic acid (neutralized with sodium hydroxide)
[21] = strain ADIP8-10, M9 + 50 g/L adipic acid (neutralized with sodium hydroxide)
[22] = strain MG1655-1, M9 + 50 g/L adipic acid (neutralized with sodium hydroxide)

Structure (SMILES): O=C(O)CCCCC(=O)O [adipic acid]
- tlag (lag time), mean ([1]; 10 g/L): 1.0 h
- μ (growth rate), mean ([1]; 10 g/L, M9+1% glucose, 37° C): 0.575 h⁻¹
- tlag (lag time), mean ([1]; 20 g/L): 1.3 h
- μ (growth rate), mean ([1]; 20 g/L): 0.494 h⁻¹
- tlag (lag time), mean ([1]; 30 g/L): 1.8 h
- μ (growth rate), mean ([1]; 30 g/L): 0.367 h⁻¹
- tlag (lag time), mean ([1]; 40 g/L): 4.0 h
- μ (growth rate), mean ([1]; 40 g/L): 0.263 h⁻¹
- tlag (lag time), mean ([1]; 50 g/L): 2.4 h
- μ (growth rate), mean ([1]; 50 g/L): 0.120 h⁻¹
- tlag (lag time), mean ([1]; 75 g/L): 27 h and 27.2 h
- μ (growth rate), mean ([1]; 75 g/L): 0.203 h⁻¹
- μ (growth rate), mean ([1]; 100 g/L): 0.000 h⁻¹
- maximum measured concentration at which exponentially growing K-12 MG1655 can grow ([1]; neutralized diacid in M9+1% glucose): 75 g/L
- mean growth rate μ [2, 3]: 0.315 h⁻¹
- mean lag time tlag [2, 3]: 16.6 h
- mean growth rate μ [2, 4]: 0.274 h⁻¹
- mean lag time tlag [2, 4]: 5.8 h
- mean growth rate μ [2, 5]: 0.332 h⁻¹
- mean lag time tlag [2, 5]: 20.1 h
- mean growth rate μ [2, 6]: 0.337 h⁻¹
- mean lag time tlag [2, 6]: 22.1 h
- mean growth rate μ [2, 7]: 0.326 h⁻¹
- mean lag time tlag [2, 7]: 20.8 h
- mean growth rate μ [2, 8]: 0.295 h⁻¹
- mean lag time tlag [2, 8]: 16.6 h
- mean growth rate μ [2, 9]: 0.305 h⁻¹
- mean lag time tlag [2, 9]: 23.3 h
- mean growth rate μ [2, 10]: 0.295 h⁻¹
- mean lag time tlag [2, 10]: 20.1 h
- mean growth rate μ [2, 11]: 0.332 h⁻¹
- mean lag time tlag [2, 11]: 6.8 h
- mean growth rate μ [2, 12]: 0.401 h⁻¹
- mean lag time tlag [2, 12]: 4.7 h
- mean growth rate μ [2, 13]: 0.370 h⁻¹
- mean lag time tlag [2, 13]: 14.4 h
- mean growth rate μ [2, 14]: 0.280 h⁻¹
- mean lag time tlag [2, 14]: 6.5 h
- mean growth rate μ [2, 15]: 0.279 h⁻¹
- mean lag time tlag [2, 15]: 6.8 h
- mean growth rate μ [2, 16]: 0.284 h⁻¹
- mean lag time tlag [2, 16]: 7.1 h
- mean growth rate μ [2, 17]: 0.189 h⁻¹
- mean lag time tlag [2, 17]: 7.6 h
- mean growth rate μ [2, 18]: 0.292 h⁻¹
- mean lag time tlag [2, 18]: 19.3 h
- mean growth rate μ [2, 19]: 0.201 h⁻¹
- mean lag time tlag [2, 19]: 6.0 h
- mean growth rate μ [2, 20]: 0.206 h⁻¹
- mean lag time tlag [2, 20]: 7.2 h
- mean growth rate μ [2, 21]: 0.200 h⁻¹
- mean lag time tlag [2, 21]: 6.8 h
- mean growth rate μ [2, 22]: 0.133 h⁻¹
- mean lag time tlag [2, 22]: 21.4 h

Source: patent US20230139445A1, “BACTERIAL CELLS WITH IMPROVED TOLERANCE TO DIACIDS” (priority 2016, published 2023)
